Assay results published in US10167262B2, “Herbicidal substituted 3-arylpyrazoles” (FMC CORPORATION, priority 2014, dated 2019).

Tests used:
Assay type in all cases: in vivo
[1] = tested on: waterhemp_RES1, (ALS & Triazine resistant common waterhemp, Amaranthus rudis); experiment: Test E postemergence greenhouse test, plant response rating 0-100; conditions: scale 0 to 100
Summary of the method: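 Resistant waterhemp biotypes grown in peat/vermiculite medium and treated postemergence at 2–18 cm height (1- to 4-leaf stage). Kept in greenhouse 14 to 21 days, then visually rated against untreated controls on a 0–100 scale (0 no effect, 100 complete control).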

[2] = tested on: Italian ryegrass (Lolium multiflorum); experiment: Test E pre-/postemergence greenhouse test, plant response rating 0-100; conditions: scale 0 to 100; for Ryegrass, Italian plant response rating: Preemergence
Summary of the method: (§1)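 Greenhouse pot assay, two application timings. Pre- to silt loam at planting; post- to 1–4-leaf plants. Visual 0–100 score at 14–21 d.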

[3] = tested on: barnyardgrass (Echinochloa crus-galli); experiment: as above; conditions: scale 0 to 100; for Barnyardgrass plant response rating: Preemergence
Summary of the method: as §1

[4] = tested on: green foxtail (Setaria viridis); experiment: as above; conditions: Preemergence, scale 0 to 100
[5] = tested on: large (Lg) crabgrass (Digitaria sanguinalis); experiment: as above; conditions: Preemergence, scale 0 to 100
[6] = tested on: yellow nutsedge (Cyperus esculentus); experiment: as above; conditions: Preemergence, scale 0 to 100
[7] = tested on: morningglory (Ipomoea coccinea); experiment: as above; conditions: Preemergence, scale 0 to 100
[8] = tested on: johnsongrass (Sorghum halepense); experiment: as above; conditions: Preemergence, scale 0 to 100
[9] = tested on: goosegrass (Eleusine indica); experiment: as above; conditions: Preemergence, scale 0 to 100
[10] = tested on: smartweed (ladysthumb smartweed, Polygonum persicaria); experiment: as above; conditions: Preemergence, scale 0 to 100
[11] = tested on: surinam grass (Brachiaria decumbens); experiment: as above; conditions: Preemergence, scale 0 to 100
Summary of the method: as §1

[12] = tested on: ragweed (common ragweed, Ambrosia elatior); experiment: as above; conditions: Preemergence, scale 0 to 100
Summary of the method: as §1

[13] = tested on: velvetleaf (Abutilon theophrasti); experiment: as above; conditions: Preemergence, scale 0 to 100
Summary of the method: as §1

[14] = tested on: kochia (Kochia scoparia); experiment: as above; conditions: Preemergence, scale 0 to 100
Summary of the method: as §1

[15] = tested on: giant foxtail (Setaria faberii); experiment: as above; conditions: Preemergence, scale 0 to 100
[16] = Lolium multiflorum, post-emergence, Postemergence, 125 g ai/ha
[17] = Lolium multiflorum, post-emergence, Postemergence, 500 g ai/ha
[18] = Echinochloa crus-galli, post-emergence, Postemergence, 125 g ai/ha
[19] = Echinochloa crus-galli, post-emergence, Postemergence, 500 g ai/ha

## Cn1cc(C(=O)c2cccs2)c(-c2cc(Cl)cc(Cl)c2)n1 [Compound 17]
[1]; 31 g ai/ha
  Plant response rating, Waterhemp_RES1: 70
[1]; 62 g ai/ha
  Plant response rating, Waterhemp_RES1: 70
[1]; 250 g ai/ha
  Plant response rating, Waterhemp_RES1: 85
[1]; 500 g ai/ha
  Plant response rating, Waterhemp_RES1: 85
[2]; Postemergence, 31 g ai/ha
  Plant response rating, Ryegrass, Italian: 0
[2]; Postemergence, 62 g ai/ha
  Plant response rating, Ryegrass, Italian: 0
[2]; Postemergence, 125 g ai/ha
  Plant response rating, Ryegrass, Italian: 0
[2]; Postemergence, 250 g ai/ha
  Plant response rating, Ryegrass, Italian: 0
[2]; Postemergence, 500 g ai/ha
  Plant response rating, Ryegrass, Italian: 0
[3]; Postemergence, 31 g ai/ha
  Plant response rating, Barnyardgrass: 0
[3]; Postemergence, 62 g ai/ha
  Plant response rating, Barnyardgrass: 0
[3]; Postemergence, 125 g ai/ha
  Plant response rating, Barnyardgrass: 0
[3]; Postemergence, 250 g ai/ha
  Plant response rating, Barnyardgrass: 0
[3]; Postemergence, 500 g ai/ha
  Plant response rating, Barnyardgrass: 20

## COC(OC)(c1ccccc1)c1c[nH]nc1-c1cc(Cl)cc(Cl)c1 [Compound 13, 3-(3,5-dichlorophenyl)-4-(dimethoxyphenylmethyl)-1H-pyrazole]
[1]; 125 g ai/ha
  Plant response rating, Waterhemp_RES1: 90
[1]; 500 g ai/ha
  Plant response rating, Waterhemp_RES1: 100
[2]; [16]
  pest or weed control at 125 g/ha: 0%
[2]; [17]
  pest or weed control at 500 g/ha: 0%
[3]; [18]
  pest or weed control at 125 g/ha: 15%
[3]; [19]
  pest or weed control at 500 g/ha: 40%

## ON=C(c1ccccc1)c1c[nH]nc1-c1cc(Cl)cc(Cl)c1 [Compound 50]
[2]; Postemergence, 31 g ai/ha
  Plant response rating, Ryegrass, Italian: 0
[2]; Postemergence, 62 g ai/ha
  Plant response rating, Ryegrass, Italian: 0
[2]; Postemergence, 125 g ai/ha
  Plant response rating, Ryegrass, Italian: 0
[2]; Postemergence, 250 g ai/ha
  Plant response rating, Ryegrass, Italian: 0
[2]; Postemergence, 500 g ai/ha
  Plant response rating, Ryegrass, Italian: 0
[3]; Postemergence, 31 g ai/ha
  Plant response rating, Barnyardgrass: 0
[3]; Postemergence, 62 g ai/ha
  Plant response rating, Barnyardgrass: 0
[3]; Postemergence, 125 g ai/ha
  Plant response rating, Barnyardgrass: 0
[3]; Postemergence, 250 g ai/ha
  Plant response rating, Barnyardgrass: 0
[3]; Postemergence, 500 g ai/ha
  Plant response rating, Barnyardgrass: 10

## COCC(=O)n1cc(C(=O)c2ccccc2)c(-c2cc(Cl)cc(Cl)c2)n1 [Compound 16, 1-[4-benzoyl-3-(3,5-dichlorophenyl)-1H-pyrazol-1-yl]-2-methoxyethanone]
[4]; 31 g ai/ha
  Foxtail, Green plant response rating: 0
[4]; 62 g ai/ha
  Foxtail, Green plant response rating: 0
[4]; 125 g ai/ha
  Foxtail, Green plant response rating: 0
[4]; 250 g ai/ha
  Foxtail, Green plant response rating: 0
[4]; 500 g ai/ha
  Foxtail, Green plant response rating: 0
[5]; 31 g ai/ha
  Crabgrass, Large plant response rating: 0
[5]; 62 g ai/ha
  Crabgrass, Large plant response rating: 0
[5]; 125 g ai/ha
  Crabgrass, Large plant response rating: 0
[5]; 250 g ai/ha
  Crabgrass, Large plant response rating: 0
[5]; 500 g ai/ha
  Crabgrass, Large plant response rating: 0
[6]; 31 g ai/ha
  Nutsedge, Yellow plant response rating: 0
[6]; 62 g ai/ha
  Nutsedge, Yellow plant response rating: 20
[6]; 125 g ai/ha
  Nutsedge, Yellow plant response rating: 35
[6]; 250 g ai/ha
  Nutsedge, Yellow plant response rating: 0
[6]; 500 g ai/ha
  Nutsedge, Yellow plant response rating: 0
[7]; 31 g ai/ha
  Morningglory plant response rating: 0
[7]; 62 g ai/ha
  Morningglory plant response rating: 20
[7]; 125 g ai/ha
  Morningglory plant response rating: 20
[7]; 250 g ai/ha
  Morningglory plant response rating: 0
[7]; 500 g ai/ha
  Morningglory plant response rating: 40
[8]; 31 g ai/ha
  Johnsongrass plant response rating: 0
[8]; 62 g ai/ha
  Johnsongrass plant response rating: 0
[8]; 125 g ai/ha
  Johnsongrass plant response rating: 0
[8]; 250 g ai/ha
  Johnsongrass plant response rating: 0
[8]; 500 g ai/ha
  Johnsongrass plant response rating: 30
[9]; 31 g ai/ha
  Goosegrass plant response rating: 0
[9]; 62 g ai/ha
  Goosegrass plant response rating: 0
[9]; 125 g ai/ha
  Goosegrass plant response rating: 0
[9]; 250 g ai/ha
  Goosegrass plant response rating: 40
[9]; 500 g ai/ha
  Goosegrass plant response rating: 50
[10]; 31 g ai/ha
  Smartweed plant response rating: 0
[10]; 62 g ai/ha
  Smartweed plant response rating: 0
[10]; 125 g ai/ha
  Smartweed plant response rating: 100
[10]; 250 g ai/ha
  Smartweed plant response rating: 100
[10]; 500 g ai/ha
  Smartweed plant response rating: 100
[11]; 31 g ai/ha
  Surinam Grass plant response rating: 0
[11]; 62 g ai/ha
  Surinam Grass plant response rating: 0
[11]; 125 g ai/ha
  Surinam Grass plant response rating: 0
[11]; 250 g ai/ha
  Surinam Grass plant response rating: 0
[11]; 500 g ai/ha
  Surinam Grass plant response rating: 0
[2]; Lolium multiflorum, post-emergence, Postemergence, 31 g ai/ha
  pest or weed control at 31 g/ha: 0%
[2]; Lolium multiflorum, post-emergence, Postemergence, 62 g ai/ha
  pest or weed control at 62 g/ha: 0%
[2]; [16]
  pest or weed control at 125 g/ha: 0%
[2]; Lolium multiflorum, post-emergence, Postemergence, 250 g ai/ha
  pest or weed control at 250 g/ha: 0%
[2]; [17]
  pest or weed control at 500 g/ha: 0%
[2]; 31 g ai/ha
  Ryegrass, Italian plant response rating: 0
[2]; 62 g ai/ha
  Ryegrass, Italian plant response rating: 0
[2]; 125 g ai/ha
  Ryegrass, Italian plant response rating: 0
[2]; 250 g ai/ha
  Ryegrass, Italian plant response rating: 0
[2]; 500 g ai/ha
  Ryegrass, Italian plant response rating: 0
[3]; Echinochloa crus-galli, post-emergence, Postemergence, 31 g ai/ha
  pest or weed control at 31 g/ha: 0%
[3]; Echinochloa crus-galli, post-emergence, Postemergence, 62 g ai/ha
  pest or weed control at 62 g/ha: 0%
[3]; [18]
  pest or weed control at 125 g/ha: 0%
[3]; Echinochloa crus-galli, post-emergence, Postemergence, 250 g ai/ha
  pest or weed control at 250 g/ha: 0%
[3]; [19]
  pest or weed control at 500 g/ha: 0%
[3]; 31 g ai/ha
  Barnyardgrass plant response rating: 0
[3]; 62 g ai/ha
  Barnyardgrass plant response rating: 0
[3]; 125 g ai/ha
  Barnyardgrass plant response rating: 0
[3]; 250 g ai/ha
  Barnyardgrass plant response rating: 0
[3]; 500 g ai/ha
  Barnyardgrass plant response rating: 0
[12]; 31 g ai/ha
  Ragweed plant response rating: 0
[12]; 62 g ai/ha
  Ragweed plant response rating: 0
[12]; 125 g ai/ha
  Ragweed plant response rating: 85
[12]; 250 g ai/ha
  Ragweed plant response rating: 90
[12]; 500 g ai/ha
  Ragweed plant response rating: 98
[13]; 31 g ai/ha
  Velvetleaf plant response rating: 0
[13]; 62 g ai/ha
  Velvetleaf plant response rating: 40
[13]; 125 g ai/ha
  Velvetleaf plant response rating: 85
[13]; 250 g ai/ha
  Velvetleaf plant response rating: 100
[13]; 500 g ai/ha
  Velvetleaf plant response rating: 100
[14]; 31 g ai/ha
  Kochia plant response rating: 0
[14]; 62 g ai/ha
  Kochia plant response rating: 0
[14]; 125 g ai/ha
  Kochia plant response rating: 0
[14]; 250 g ai/ha
  Kochia plant response rating: 50
[14]; 500 g ai/ha
  Kochia plant response rating: 75
[15]; 31 g ai/ha
  Foxtail, Giant plant response rating: 0
[15]; 62 g ai/ha
  Foxtail, Giant plant response rating: 0
[15]; 125 g ai/ha
  Foxtail, Giant plant response rating: 0
[15]; 250 g ai/ha
  Foxtail, Giant plant response rating: 0
[15]; 500 g ai/ha
  Foxtail, Giant plant response rating: 0
